Experimental data reported in patent US20040077028A1, “Assay for thrombocytopenia associated with administration of platelet GPIIb-IIIa receptor antagonists” (priority 2002, published 2004).
Positions of bridges follow the written chain, without caps; N, C: chain ends. Non-standard residues stand in square brackets, D forms with d. Residues, ends and D or L forms follow the SMILES beside them. hArg = N=C(N)NCCCC[C@H](N)C(=O)O; Mpa = O=C(O)CCS

How the values were obtained:
[1] = tested on: platelets (platelet P-selectin expression); details: platelet-rich plasma; 1 μg/ml eptifibatide; 0.5 μM ADP; absence of Mab IV.3; FIG. 3
Method: In these experiments, platelet-rich plasma was pre-incubated with FcγRII receptor blocking monoclonal antibody (Mab IV.3, 10 μg/ml). […] The mean fluorescence intensity of platelet P-selectin expression in the presence of 0.5 μM ADP was measured in the presence or absence of unconjugated Y2/51 and in the presence or absence of GPIIb-IIIa receptor antagonist, and with or without an FcγRII receptor blocking monoclonal antibody (Mab IV.3).

[2] = tested on: platelets (platelet surface P-selectin expression); test: Platelet surface P-selectin expression by flow cytometry with GPIIb-specific antibody 5B12; type: cell-based; details: 5B12 (GPIIb-specific) instead of Y2/51; sub-maximal agonist; FIG. 2
Method: After a subject's blood sample has been incubated with a GPIIb-IIIa antagonist as described above, it is diluted (e.g., between 1:10 and 1:15) in autologous platelet-poor plasma (PPP). Platelet activation is assayed. Briefly, an aliquot (e.g., 20 μl) of dilute whole blood (or PRP)-GPIIb-IIIa receptor antagonist mix is incubated for 15-30 minutes at an appropriate temperature (for example, between about 22° C. and 37° C.) with sub-maximal concentration of a platelet agonist (e.g., in 10 μl). Examples of sub-maximal concentrations of platelet agonist are 0.5 μM ADP, 5.0 μM thrombin receptor activating peptide (TRAP), or 1.5 μM iso-TRAP. ADP is not generally used in the assay when the subject is receiving ADP receptor antagonist therapy. To identify platelets and to detect platelet activation, detection reagents are added.
The samples are generally analyzed using flow cytometry. Platelets are identified by light scatter characteristics and labeling of platelets using platelet-specific antibodies (e.g., antibodies that recognize CD41, CD61, CD42a, or CD42b). The binding of antibodies directed against indicators of platelet activation (e.g., anti-P-selectin, CD62P) is assayed using flow cytometry. […] The mean fluorescence intensity and the percent positive (above background) measurements are recorded.
In a second set of experiments, the monoclonal antibody 5B12 (DAKO) which is GPIIb-specific was used instead of Y2/51.

[3] = cited from earlier work
[4] = tested on: platelets (leukocyte-platelet aggregates) in citrate anticoagulated whole blood; test: Neutrophil-platelet (leukocyte-platelet) aggregates by flow cytometry in whole blood with Y2/51; type: cell-based; details: abciximab 6.5 μg/ml, tirofiban 50 ng/ml, FITC conjugated Y2/51, FIG. 1
Excerpt: In some embodiments, platelet activation is detected by assaying leukocyte-platelet aggregation. In such protocols, peripheral blood is drawn from a subject into a suitable anticoagulant, for example 3.2% sodium citrate anticoagulant or PPACK. […] ADP is not generally used in the assay when the subject is receiving ADP receptor antagonist therapy. […] The fluorescent conjugates of the reagents are labeled to be distinguishable from each other (e.g., fluorescein and phycoerythrin) so that both can be detected by flow cytometry. […] Samples are generally analyzed by flow cytometry. […] Leukocyte-platelet aggregates are identified using fluorescence histograms displaying fluorescence (above background) of platelet specific markers (e.g., CD41, CD61, CD42a or CD42b) from the gated monocyte, neutrophil or lymphocyte populations. Both the mean fluorescence intensity and the percent positive (above background) measurements are recorded. The relative amount of fluorescence (or percent positive above background) in the subject's sample is compared to a reference. An increase in the amount of fluorescence (or percent positive above background) in the subject's sample compared to the reference indicates an increased amount of platelet activation in the subject's sample. […]

[5] = within the patient population that develops an HACA response

## N=C(N)NCCCC[C@@H]1NC(=O)CCSSC[C@@H](C(N)=O)NC(=O)[C@@H]2CCCN2C(=O)[C@H](Cc2c[nH]c3ccccc23)NC(=O)[C@H](CC(=O)O)NC(=O)CNC1=O [eptifibatide] ([Mpa][hArg]GDWPC-NH2; disulfide 1-7)
[1]
  augmentation by Y2/51 of ADP-mediated platelet activation (P-selectin) in the presence of the antagonist: augments
[2]
  augmentation of agonist-induced platelet surface P-selectin expression in the presence of the GPIIb-IIIa antagonist with 5B12: not augmented

## abciximab
[3]; patients receiving the drug for a second time (re-administration)
  incidence of thrombocytopenia (platelet count of <100×10^9/L): 3.6%
[3]; [5]
  incidence of profound thrombocytopenia (platelet count of <20×10^9/L): less than 1%
  incidence of thrombocytopenia (count of <100×10^9/L): 3.5%
[4]
  augmentation by Y2/51 of agonist-induced leukocyte-platelet aggregation (neutrophil-platelet aggregates) in the presence of the GPIIb-IIIa antagonist: did not augment
[2]
  augmentation of agonist-induced platelet surface P-selectin expression in the presence of the GPIIb-IIIa antagonist with 5B12: observed

## CCCCS(=O)(=O)N[C@@H](Cc1ccc(OCCCCC2CCNCC2)cc1)C(=O)O [tirofiban]
[4]
  augmentation by Y2/51 of agonist-induced leukocyte-platelet aggregation (neutrophil-platelet aggregates) in the presence of the GPIIb-IIIa antagonist: augmented
[2]
  augmentation of agonist-induced platelet surface P-selectin expression in the presence of the GPIIb-IIIa antagonist with 5B12: not augmented
